Results from paper PMC11591545 (Antibiotics, 2024).
≈ marks a conversion by molar mass, not a printed value. Where two headings read alike, the source gives them in different places.

What was measured:
[1] = human
Protocol: (§1) Sampling was routinely performed on three occasions for each patient at day 1 (30 min after the end of the infusion), day 7 (before redosing), and day 42 (before redosing). Blood samples were centrifuged (5 min, 4000 rpm) immediately after collection and aliquoted into 2 mL propylene tubes (Eppendorf, Hamburg, Germany). Aliquots were stored at −20 °C within 60 min after sample collection for a maximum of 4 weeks until assay. […] To obtain the unbound fraction, samples were prepared by solid phase extraction using a Nanosep® filter (Pall, New York, NY, USA) [18]. The limit of quantification (QL) was 12.5 mg/L for the total concentration and 1 mg/L for the unbound fraction [18].

[2] = fixed in the final model, based on a previous reported value; cited from earlier work
[3] = in vivo
clinical [4] = conditions: human, serum, iv, 1500 mg; SD
Protocol: as §1

[5] = label; cited from earlier work
S. aureus = experiment: Individual fAUC24 h/MIC at the end of the dosing interval in VAD patients; conditions: last 24 h before redosing
Protocol: To use a conservative approach in suppressive therapy reflecting efficacy in the crucial phase before redosing, the AUC was calculated at the end of the dosing interval (last 24 h before redosing) [21].

[6] = serum, mean ± SD
Protocol: as §1

[7] = tested on: S. aureus infection isolates; experiment: MIC strips test and broth microdilution assay according to EUCAST; type: cell-based, Staphylococcus aureus
Protocol: The MIC was tested with the MIC strips test (Liofilchem, Roseto degli Abruzzi, Italy) and broth microdilution assay according to EUCAST standards and the manufacturer’s instructions. All patients with VAD-associated infections were included in a register study after providing informed consent. A positive vote of the ethics committee of Heidelberg University Hospital was obtained before the start of the study (S-674/2022). […] Clinical data and laboratory and microbiological results were extracted.

[8] = cited from earlier work
clinical [9] = conditions: human, in vivo, iv

CN[C@H]1C(=O)N[C@@H]2Cc3ccc(cc3)Oc3cc4cc(c3O[C@@H]3O[C@H](C(=O)O)[C@@H](O)[C@H](O)[C@H]3NC(=O)CCCCCCCCC(C)C)Oc3ccc(cc3Cl)[C@@H](O)[C@@H]3NC(=O)[C@H](NC(=O)[C@@H]4NC(=O)[C@@H](NC2=O)c2cc(cc(O)c2Cl)Oc2cc1ccc2O)c1ccc(O)c(c1)-c1c(O[C@H]2O[C@H](CO)[C@@H](O)[C@H](O)[C@@H]2O)cc(O)cc1[C@@H](C(=O)NCCCN(C)C)NC3=O [dalbavancin]
observed protein binding [1]: 96-98%
Q, inter-compartmental clearance [2]: 0.476 L/h
CL, bootstrap mean (CI 95%) [3]: 0.050 (0.044–0.055) L/h
V1, bootstrap mean (CI 95%) [3]: 6.42 (5.65–7.31) L
V1, central volume of distribution, estimate [3]: 6.5 L
V2, bootstrap mean (CI 95%) [3]: 14.99 (12.46–18.67) L
V2, peripheral volume of distribution, estimate [3]: 15.4 L
level at 0.5 h (clinical [4]): 218000 ± 65900 ng/mL
level at 168 h (clinical [4]): 41100 ± 11100 ng/mL
level at 1008 h (clinical [4]): 13200 ± 9900 ng/mL
labeled protein binding [5]: 93%
fAUC24 h/MIC (S. aureus; patient 1): 141
fAUC24 h/MIC (S. aureus; patient 2): 318
fAUC24 h/MIC (S. aureus; patient 3, MIC not available, calculated with S. aureus breakpoint 0.25 mg/L): 26
fAUC24 h/MIC (S. aureus; patient 4, MIC not available, calculated with S. aureus breakpoint 0.25 mg/L): 127
fAUC24 h/MIC (S. aureus; patient 5): 110
fAUC24 h/MIC (S. aureus; patient 6, MIC not available, calculated with S. aureus breakpoint 0.25 mg/L): 49
fAUC24 h/MIC (S. aureus; patient 7): 165
fAUC24 h/MIC (S. aureus; patient 8): 253
fAUC24 h/MIC (S. aureus; patient 9): 582
fAUC24 h/MIC (S. aureus; patient 10): 60
fAUC24 h/MIC (S. aureus; patient 11): 311
fAUC24 h/MIC (S. aureus; patient 12): 104
fAUC24 h/MIC (S. aureus; patient 13): 84
fcday1 (unbound concentration day 1) ([6]; end of infusion after the first dose): 6.3 ± 2.7
fcday8 (unbound concentration day 8) ([6]; trough by the end of the first week): 1.3 ± 0.6
MIC ([7]; isolate of patient 1): 0.064 µg/mL (≈ 0.0352 µM)
MIC ([7]; isolate of patient 2): 0.064 µg/mL (≈ 0.0352 µM)
MIC ([7]; isolate of patient 5): 0.094 µg/mL (≈ 0.0517 µM)
MIC ([7]; isolate of patient 7): 0.047 µg/mL (≈ 0.0259 µM)
MIC ([7]; isolate of patient 8): 0.047 µg/mL (≈ 0.0259 µM)
MIC ([7]; isolate of patient 9): 0.064 µg/mL (≈ 0.0352 µM)
MIC ([7]; isolate of patient 10): 0.125 µg/mL (≈ 0.0688 µM)
MIC ([7]; isolate of patient 11): 0.064 µg/mL (≈ 0.0352 µM)
MIC ([7]; isolate of patient 12): 0.047 µg/mL (≈ 0.0259 µM)
MIC ([7]; isolate of patient 13): 0.064 µg/mL (≈ 0.0352 µM)
population VD ([8]; earlier population PK studies): 15.0 to 16.7 L
half-life ([8]; reported): 15.6 days
clearance (CL) ([8]; three-compartment model, ref Carrothers et al. 14): 0.053 L/h
clearance (CL) ([8]; two-compartment model, ref Buckwalter et al. 11): 0.057 L/h
clearance (CL) ([8]; two-compartment model, ref Cojutti et al. 13): 0.041 L/h
Vd (clinical [9]): 21.9 L
clearance (clinical [9]): 0.833 mL/min
